Experimental data published in BigSolDB 2.1.

Nc1ccc(Br)nn1
solubility (mole fraction)
Settings	in DMF	in acetone	in ethanol	in isopropanol	in methanol	in n-butanol	in n-propanol	in propylene glycol	in toluene	in water
278.15 K	0.0126	0.00754	0.00216	0.00276	0.00108	0.00362	0.00316	0.00191	0.00989	2.57e-05
283.15 K	0.0134	0.00832	0.00233	0.0031	0.00115	0.00405	0.00356	0.00205	0.0108	2.74e-05
288.15 K	0.0144	0.0092	0.00251	0.00346	0.00123	0.00451	0.00401	0.0022	0.0118	2.94e-05
293.15 K	0.0155	0.0102	0.0027	0.00384	0.00131	0.005	0.00446	0.0024	0.0129	3.18e-05
298.15 K	0.0167	0.0113	0.0029	0.0043	0.00142	0.00556	0.00496	0.0026	0.0141	3.43e-05
303.15 K	0.0179	0.0125	0.00314	0.00475	0.00152	0.0062	0.00557	0.00281	0.0154	3.7e-05
308.15 K	0.0192	0.0138	0.0034	0.0053	0.00165	0.00687	0.00617	0.00305	0.0167	3.97e-05
313.15 K	0.0206	0.0153	0.00366	0.00586	0.00178	0.00759	0.00683	0.0033	0.018	4.27e-05
318.15 K	0.0223	0.0169	0.00399	0.00649	0.00192	0.00838	0.00758	0.00357	0.0196	4.6e-05
323.15 K	0.0242	0.0188	0.0044	0.00721	0.00209	0.00933	0.0085	0.00391	0.0213	4.98e-05
